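Cultured in 96-well plates, cells were exposed to test compound for 48 hours across five concentrations. At the TGI there is no net growth.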
Tests used:
Assay in all cases: NCI tumour cell line growth inhibition, 48 h
HOP-92 NSCLC = test system: HOP-92 NSCLC
786-0 renal = test system: 786-0 renal
SNB-19 CNS = test system: SNB-19 CNS
HT29 colon = test system: HT29 colon
COLO 205 colon = test system: COLO 205 colon
NCI-H23 lung = test system: NCI-H23 lung
MALME-3M melanoma = test system: MALME-3M melanoma
SW-620 colon = test system: SW-620 colon
RXF 393 renal = test system: RXF 393 renal
DMS 273 small cell lung = test system: DMS 273 small cell lung
OVCAR-3 ovarian = test system: OVCAR-3 ovarian
HOP-62 NSCLC = test system: HOP-62 NSCLC
A549 NSCLC = test system: A549 NSCLC
OVCAR-5 ovarian = test system: OVCAR-5 ovarian
IGROV1 ovarian = test system: IGROV1 ovarian
SF-295 CNS = test system: SF-295 CNS
SF-539 CNS = test system: SF-539 CNS
HL-60(TB) leukemia = test system: HL-60(TB) leukemia
RPMI-8226 leukemia = test system: RPMI-8226 leukemia
XF 498 CNS = test system: XF 498 CNS
KM12 colon = test system: KM12 colon
A498 renal = test system: A498 renal
EKVX NSCLC = test system: EKVX NSCLC
ACHN renal = test system: ACHN renal
HCT-15 colon = test system: HCT-15 colon
UACC-62 melanoma = test system: UACC-62 melanoma
MOLT-4 leukemia = test system: MOLT-4 leukemia
U251 CNS = test system: U251 CNS
SK-OV-3 ovarian = test system: SK-OV-3 ovarian
SN12C renal = test system: SN12C renal
SR leukemia = test system: SR leukemia
SF-268 CNS = test system: SF-268 CNS
DLD-1 colon = test system: DLD-1 colon
HCT-116 colon = test system: HCT-116 colon
OVCAR-8 ovarian = test system: OVCAR-8 ovarian
NCI-H226 lung = test system: NCI-H226 lung
OVCAR-4 ovarian = test system: OVCAR-4 ovarian
SK-MEL-5 melanoma = test system: SK-MEL-5 melanoma
UACC-257 melanoma = test system: UACC-257 melanoma
LOX IMVI melanoma = test system: LOX IMVI melanoma
SNB-78 CNS = test system: SNB-78 CNS
CAKI-1 renal = test system: CAKI-1 renal
M19-MEL melanoma = test system: M19-MEL melanoma
NCI-H522 lung = test system: NCI-H522 lung
K-562 leukemia = test system: K-562 leukemia
DMS 114 small cell lung = test system: DMS 114 small cell lung
UO-31 renal = test system: UO-31 renal
TK-10 renal = test system: TK-10 renal
NCI-H460 lung = test system: NCI-H460 lung
SK-MEL-2 melanoma = test system: SK-MEL-2 melanoma
SK-MEL-28 melanoma = test system: SK-MEL-28 melanoma
KM20L2 colon = test system: KM20L2 colon
CCRF-CEM leukemia = test system: CCRF-CEM leukemia
HCC-2998 colon = test system: HCC-2998 colon
LXFL 529 NSCLC = test system: LXFL 529 NSCLC
HOP-18 NSCLC = test system: HOP-18 NSCLC
M14 melanoma = test system: M14 melanoma
SNB-75 CNS = test system: SNB-75 CNS

## CCOC(=O)C12C(C(=O)OC)=C(C)N(NC(=O)Nc3ccccc3)C1(N)N(NC(=O)Nc1ccccc1)C(C)=C2C(=O)OC (stereo not drawn)
HOP-92 NSCLC
  TGI: 66.3 µM
786-0 renal
  TGI: > 100 µM
SNB-19 CNS
  TGI: > 100 µM
HT29 colon
  TGI: 52.9 µM
COLO 205 colon
  TGI: > 56.2 µM
NCI-H23 lung
  TGI: > 100 µM
MALME-3M melanoma
  TGI: 50.7 µM
SW-620 colon
  TGI: > 100 µM
RXF 393 renal
  TGI: 74.3 µM
DMS 273 small cell lung
  TGI: > 72.2 µM
OVCAR-3 ovarian
  TGI: 60.2 µM
HOP-62 NSCLC
  TGI: 49 µM
A549 NSCLC
  TGI: > 100 µM
OVCAR-5 ovarian
  TGI: > 100 µM
IGROV1 ovarian
  TGI: > 100 µM
SF-295 CNS
  TGI: 60 µM
SF-539 CNS
  TGI: 37.9 µM
HL-60(TB) leukemia
  TGI: 48.8 µM
RPMI-8226 leukemia
  TGI: 74 µM
XF 498 CNS
  TGI: 59.1 µM
KM12 colon
  TGI: 47.8 µM
A498 renal
  TGI: > 100 µM
EKVX NSCLC
  TGI: > 100 µM
ACHN renal
  TGI: > 100 µM
HCT-15 colon
  TGI: > 100 µM
UACC-62 melanoma
  TGI: 34.5 µM
MOLT-4 leukemia
  TGI: 46.7 µM
U251 CNS
  TGI: 35.8 µM
SK-OV-3 ovarian
  TGI: > 100 µM
SN12C renal
  TGI: > 100 µM
SR leukemia
  TGI: 59.1 µM
SF-268 CNS
  TGI: > 86.7 µM
DLD-1 colon
  TGI: > 100 µM
HCT-116 colon
  TGI: 59.4 µM
OVCAR-8 ovarian
  TGI: > 100 µM
NCI-H226 lung
  TGI: > 100000 nM
OVCAR-4 ovarian
  TGI: > 100 µM
SK-MEL-5 melanoma
  TGI: 39.3 µM
UACC-257 melanoma
  TGI: 62.9 µM
LOX IMVI melanoma
  TGI: 33.6 µM
SNB-78 CNS
  TGI: > 100 µM
CAKI-1 renal
  TGI: > 100 µM
M19-MEL melanoma
  TGI: 33.2 µM
NCI-H522 lung
  TGI: 55.3 µM
K-562 leukemia
  TGI: > 73.5 µM
DMS 114 small cell lung
  TGI: 83.6 µM
UO-31 renal
  TGI: > 100 µM
TK-10 renal
  TGI: > 100 µM
NCI-H460 lung
  TGI: > 94.2 µM
SK-MEL-2 melanoma
  TGI: 37.5 µM
SK-MEL-28 melanoma
  TGI: > 88.7 µM
KM20L2 colon
  TGI: 42.8 µM
CCRF-CEM leukemia
  TGI: 59 µM
HCC-2998 colon
  TGI: 86.8 µM
LXFL 529 NSCLC
  TGI: > 79.5 µM
HOP-18 NSCLC
  TGI: > 86 µM
M14 melanoma
  TGI: 45.6 µM
SNB-75 CNS
  TGI: > 100 µM

## CCOc1ccc(C(C)c2cc3c(cc2OC)OCO3)cc1 (stereo not drawn)
HOP-92 NSCLC
  TGI: 9.93 µM
SNB-19 CNS
  TGI: > 100 µM
HT29 colon
  TGI: 12.4 µM
NCI-H23 lung
  TGI: > 100 µM
MALME-3M melanoma
  TGI: 89.7 µM
SW-620 colon
  TGI: > 100 µM
RXF 393 renal
  TGI: 0.539 µM
DMS 273 small cell lung
  TGI: 11.7 µM
OVCAR-3 ovarian
  TGI: 27.7 µM
HOP-62 NSCLC
  TGI: 23.1 µM
A549 NSCLC
  TGI: 90.8 µM
OVCAR-5 ovarian
  TGI: > 100 µM
IGROV1 ovarian
  TGI: > 100 µM
SF-539 CNS
  TGI: 0.631 µM
RPMI-8226 leukemia
  TGI: 22.2 µM
XF 498 CNS
  TGI: 0.823 µM
ACHN renal
  TGI: > 100 µM
HCT-15 colon
  TGI: > 100 µM
UACC-62 melanoma
  TGI: > 100 µM
MOLT-4 leukemia
  TGI: 15 µM
U251 CNS
  TGI: > 100 µM
SK-OV-3 ovarian
  TGI: > 100 µM
SN12C renal
  TGI: 40.7 µM
SR leukemia
  TGI: 0.442 µM
SF-268 CNS
  TGI: 45.5 µM
DLD-1 colon
  TGI: 82.5 µM
HCT-116 colon
  TGI: 4.82 µM
OVCAR-8 ovarian
  TGI: 9.59 µM
NCI-H226 lung
  TGI: 752 nM
OVCAR-4 ovarian
  TGI: > 100 µM
SK-MEL-5 melanoma
  TGI: 1.15 µM
UACC-257 melanoma
  TGI: 52.8 µM
LOX IMVI melanoma
  TGI: > 100 µM
SNB-78 CNS
  TGI: > 100 µM
CAKI-1 renal
  TGI: > 100 µM
NCI-H522 lung
  TGI: 0.166 µM
DMS 114 small cell lung
  TGI: 0.85 µM
UO-31 renal
  TGI: > 100 µM
TK-10 renal
  TGI: > 100 µM
NCI-H460 lung
  TGI: > 100 µM
KM20L2 colon
  TGI: 0.414 µM
HCC-2998 colon
  TGI: 12.1 µM
LXFL 529 NSCLC
  TGI: > 100 µM
HOP-18 NSCLC
  TGI: > 100 µM
M14 melanoma
  TGI: 45 µM

Reference: PubChem BioAssay (NCI)
